Experiment: xn = mol fraction of the nth substance listed
Conditions: Vibrating tube method, x2 = 0.9503

O=S=O [sulfur dioxide] + O=C=O
Conditions	mass density [kg/m3]
272.65 K, 226 kPa, Gas	4.8
272.65 K, 407 kPa, Gas	8.5
272.65 K, 503 kPa, Gas	10.6
272.65 K, 752 kPa, Gas	16.2
272.65 K, 1013 kPa, Gas	22.1
272.65 K, 1252 kPa, Gas	27.9
272.65 K, 1506 kPa, Gas	34.4
272.65 K, 1752 kPa, Gas	40.9
272.65 K, 1998 kPa, Gas	47.9
273.54 K, 25506 kPa, Liquid	1065.1
273.54 K, 26999 kPa, Liquid	1069.9
273.54 K, 29024 kPa, Liquid	1076.3
273.54 K, 29514 kPa, Liquid	1077.7
273.54 K, 30524 kPa, Liquid	1080.9
273.54 K, 31975 kPa, Liquid	1085.1
273.54 K, 32491 kPa, Liquid	1086.7
273.54 K, 33027 kPa, Liquid	1088.3
273.54 K, 33521 kPa, Liquid	1089.7
273.54 K, 34032 kPa, Liquid	1091.1
273.54 K, 34491 kPa, Liquid	1092.3
273.54 K, 35043 kPa, Liquid	1093.9
273.54 K, 35534 kPa, Liquid	1095.1
273.54 K, 36045 kPa, Liquid	1096.7
273.54 K, 36490 kPa, Liquid	1097.6
273.54 K, 37047 kPa, Liquid	1099
273.54 K, 37529 kPa, Liquid	1100.5
273.54 K, 38033 kPa, Liquid	1101.8
273.54 K, 38558 kPa, Liquid	1103.1
273.54 K, 41723 kPa, Liquid	1110.7
273.55 K, 20535 kPa, Liquid	1047.9
273.55 K, 24032 kPa, Liquid	1060.4
273.55 K, 24523 kPa, Liquid	1061.9
273.55 K, 25039 kPa, Liquid	1063.6
273.55 K, 26016 kPa, Liquid	1066.9
273.55 K, 26484 kPa, Liquid	1068.3
273.55 K, 27554 kPa, Liquid	1071.7
273.55 K, 28041 kPa, Liquid	1073
273.55 K, 28539 kPa, Liquid	1074.9
273.55 K, 30026 kPa, Liquid	1079.4
273.55 K, 30952 kPa, Liquid	1082.2
273.55 K, 31482 kPa, Liquid	1083.6
273.55 K, 38992 kPa, Liquid	1104
273.55 K, 39553 kPa, Liquid	1105.7
273.55 K, 40023 kPa, Liquid	1106.6
273.55 K, 40508 kPa, Liquid	1107.8
273.55 K, 41016 kPa, Liquid	1109
273.56 K, 12509 kPa, Liquid	1014.7
273.56 K, 13012 kPa, Liquid	1017.2
273.56 K, 13506 kPa, Liquid	1019.3
273.56 K, 17514 kPa, Liquid	1036.2
273.56 K, 18049 kPa, Liquid	1038.2
273.56 K, 18515 kPa, Liquid	1040.1
273.56 K, 19000 kPa, Liquid	1042.1
273.56 K, 19509 kPa, Liquid	1044
273.56 K, 20028 kPa, Liquid	1046
273.56 K, 21029 kPa, Liquid	1049.7
273.56 K, 21519 kPa, Liquid	1051.3
273.56 K, 21993 kPa, Liquid	1053
273.56 K, 22501 kPa, Liquid	1054.9
273.56 K, 23496 kPa, Liquid	1058.4
273.56 K, 41601 kPa, Liquid	1110.4
273.57 K, 9944 kPa, Liquid	1001.9
273.57 K, 10516 kPa, Liquid	1004.5
273.57 K, 11003 kPa, Liquid	1007
273.57 K, 11502 kPa, Liquid	1009.5
273.57 K, 12005 kPa, Liquid	1012.2
273.57 K, 14518 kPa, Liquid	1023.6
273.57 K, 14951 kPa, Liquid	1025.4
273.57 K, 15999 kPa, Liquid	1029.8
273.57 K, 16500 kPa, Liquid	1031.9
273.57 K, 17024 kPa, Liquid	1034.2
273.57 K, 23015 kPa, Liquid	1056.6
273.58 K, 8503 kPa, Liquid	993.8
273.58 K, 9008 kPa, Liquid	996.7
273.58 K, 9518 kPa, Liquid	999.7
273.58 K, 15602 kPa, Liquid	1028.1
273.6 K, 4001 kPa, Liquid	964.9
273.6 K, 5521 kPa, Liquid	975.5
273.6 K, 6005 kPa, Liquid	978.7
273.6 K, 6503 kPa, Liquid	981.9
273.6 K, 7034 kPa, Liquid	984.6
273.6 K, 7688 kPa, Liquid	987.5
273.6 K, 8003 kPa, Liquid	990.6
273.61 K, 4518 kPa, Liquid	968.2
273.61 K, 5013 kPa, Liquid	972.1
282.65 K, 800 kPa, Gas	16.5
282.65 K, 1249 kPa, Gas	26.3
282.66 K, 120 kPa, Gas	2.5
282.66 K, 211 kPa, Gas	4.3
282.66 K, 301 kPa, Gas	6.1
282.66 K, 408 kPa, Gas	8.5
282.66 K, 511 kPa, Gas	10.6
282.66 K, 608 kPa, Gas	12.3
282.66 K, 1009 kPa, Gas	21.1
282.66 K, 1509 kPa, Gas	32.8
282.66 K, 1705 kPa, Gas	37.5
282.66 K, 1909 kPa, Gas	42.7
282.66 K, 2010 kPa, Gas	45.2
282.66 K, 2199 kPa, Gas	50.5
282.66 K, 2508 kPa, Gas	59.6
282.66 K, 2702 kPa, Gas	65.5
282.66 K, 3008 kPa, Gas	76
283.31 K, 27537 kPa, Liquid	1038.9
283.31 K, 34500 kPa, Liquid	1062.8
283.31 K, 35516 kPa, Liquid	1065.8
283.31 K, 36037 kPa, Liquid	1067.5
283.31 K, 36515 kPa, Liquid	1068.6
283.31 K, 37578 kPa, Liquid	1072.1
283.31 K, 38061 kPa, Liquid	1073.3
283.32 K, 5005 kPa, Liquid	910.4

Source: the NIST ThermoML archive (doi:10.1016/j.fluid.2017.09.014)
